Reference: paper PMC9894685, “Abscisic acid agonists suitable for optimizing plant water use” (Frontiers in Plant Science, 2023)

Experiments:
[1] = test system: T1, RCAR8/PYL5-ABI2; experiment: Yeast ABA signal pathway LUC reporter, RCAR8-ABI2; assay type: cell-based, Arabidopsis thaliana
T1 construct: expressed in transfected cells; host or cells: yeast (LUC reporter strain)
Protocol: (§1) The yeast cultivation and the life luciferase assay were performed as described ([Ruschhaupt et al., 2019]). Briefly, the reporter yeast expressing an ABA-dependent luciferase gene (LUC) was transformed with different combinations of ABA signaling components as indicated. Golden gate cloning ([Binder et al., 2014]) was used to construct pYEAST_LII_5‐6_CEN_URA vector with TDH3 promoter and TDH1 terminator (tTDH1), pYEAST_LII_1‐2_CEN_LEU vector with GK1 promoter and tTDH1, and pYEAST_LII_3‐4_CEN_TRP with the GAL1 promoter (pGAL1) and tTDH1 to express RCARs, PP2Cs, and OST1 (SnRK2.6), respectively ([Ruschhaupt et al., 2019]). The expression of ABF2 in yeast relies on a modified pGREG503 vector, in which pGAL1 ([Jansen et al., 2005]) was replaced by the ADH1 promoter.
(§2) Colonies of freshly transformed cells were inoculated in 0.5 mL supplemented synthetic dextrose (SD) medium and incubated at 30°C in a gyratory shaker (Thermoshake-THO500, Gerhardt, Königswinter, Germany) at 200 rpm for 16-18 h. After overnight growth, the cells were harvested and washed in SD medium followed by inoculation in SD medium containing 2% galactose for induction of SnRK2 kinases under the control of the GAL1 promoter and supplementation with ligands at indicated concentrations, to an OD600 of 0.2 in flat-bottom 96-well plates (CytoOne, Starlab, Hamburg, Germany). Yeast cultures were incubated at 30°C and 200 rpm for 16-18 h before determination of LUC activity and cell density. Light emission of yeasts was detected in a HIDEX plate luminometer (HIDEX, Turku, Finland) after injection of 100 µL freshly prepared luciferin substrate (1 mM D-luciferin, Promega) provided in 100 mM citric acid, pH 3 ([Leskinen et al., 2003]) for 5 s and was corrected for background. The LUC activity was normalized to the cell density (OD600) measured in 96-well flat plates (Sarstedt, Nümbrecht, Germany). LUC activity is given as the ratio of light emission to OD600 in counts per second.

[2] = target: T2, RCAR1-ABI2 (Arabidopsis thaliana, UniProt O04719+Q84MC7); experiment: In vitro phosphatase assay, ABI2 with RCAR1; assay type: biochemical; settings: for Statistical significance of RCAR1-mediated inhibition of ABI2 phosphatase activity vs ABA / Statistical significance of RCAR1-mediated inhibition of ABI2 phosphatase activity vs CCP1: Fig. 3B
T2 construct: 6xHis (N); made in house; host or cells: Escherichia coli BL21
T2 sequence (Q84MC7 1-187): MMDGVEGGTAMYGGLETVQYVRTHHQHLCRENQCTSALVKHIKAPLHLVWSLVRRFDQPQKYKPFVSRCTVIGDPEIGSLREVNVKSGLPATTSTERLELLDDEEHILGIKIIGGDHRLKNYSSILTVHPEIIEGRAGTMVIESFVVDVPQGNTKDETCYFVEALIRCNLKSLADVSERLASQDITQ
T2 sequence (O04719 1-423): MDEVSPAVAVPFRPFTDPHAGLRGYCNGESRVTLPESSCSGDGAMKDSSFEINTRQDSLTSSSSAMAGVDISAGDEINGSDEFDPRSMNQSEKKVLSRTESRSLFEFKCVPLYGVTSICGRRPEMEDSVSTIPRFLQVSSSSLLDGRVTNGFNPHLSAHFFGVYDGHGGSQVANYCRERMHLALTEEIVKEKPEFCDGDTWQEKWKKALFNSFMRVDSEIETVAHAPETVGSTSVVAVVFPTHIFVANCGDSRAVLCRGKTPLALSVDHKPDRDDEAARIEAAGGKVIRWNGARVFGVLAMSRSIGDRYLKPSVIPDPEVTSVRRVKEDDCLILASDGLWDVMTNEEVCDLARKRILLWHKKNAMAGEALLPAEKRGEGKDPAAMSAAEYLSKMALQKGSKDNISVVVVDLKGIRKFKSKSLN
Protocol: Expression, purification, and analysis of RCAR and PP2C proteins were performed essentially as described ([Ruschhaupt et al., 2019]). Briefly, the ABA receptors RCAR1, RACR8, and RCAR11 were expressed with an aminoterminal histidine tag using the pSEVA431_LII_6xHIS::RCAR1/RCAR8/RCAR11. ABA coreceptors were expressed as histidine-tagged fusions with the maltose-binding protein using the pSEVA431_LII_6xHIS::MBP::ABI2/HAB1. All constructs were transformed and expressed in Escherichia coli strain BL21 and purified to homogeneity according to supplier’s instruction (GE Healthcare, Chicago, USA). The receptor assay was performed with 100 nM PP2C and a two-fold molar excess of RCAR. Values are means ± SD of three replicates. […] The maximum inhibition was set to 100% in the figures. The phosphatase activity was measured using 4-methylumbelliferyl-phosphate as a substrate ([Meinhard and Grill, 2001]). The increase in fluorescence was recorded over 25 min with excitation and emission wavelengths at 360 and 460 nm, respectively, using a Synergy 2 plate reader (Bio-Tec, Winooski, USA).

[3] = test system: RCAR11-ABI2; experiment: Yeast ABA signal pathway LUC reporter, RCAR11-ABI2; assay type: cell-based, Arabidopsis thaliana
Protocol: as §1, §2

[4] = test system: Arabidopsis aba2-1 protoplasts; experiment: Transient ABA response in Arabidopsis protoplasts (pRD29B::LUC, RCAR11 and ABI2 effectors); assay type: cell-based, Arabidopsis thaliana; settings: aba2-1 protoplasts, 18 h ligand exposure
Protocol: Preparation of Arabidopsis protoplasts, transfection of the effector DNA, and analysis of LUC activity were performed as described ([Tischer et al., 2017]). In essence, 10^5 mesophyll protoplasts from leaves of the ABA deficient mutant aba2-1 ([Schwartz et al., 1997]) were transfected with 4 µg DNA of the pRD29B::LUC construct as an ABA-responsive reporter and 3 µg of p35S::GUS (β-glucuronidase reporter gene) expression cassette as an internal control for normalization. In addition, 3 µg p35S::RCAR11 or the empty vector with the same expression cassette were co-expressed with 0.1 µg p35S::ABI2 effector constructs ([Tischer et al., 2017]), and the ligand-dependent induction of ABA-responsive reporter expression were assessed after incubation at 22°C. The expression of LUC and GUS was determined 18 h after transfection and ligand administration.

Question: Which “Reporter induction relative to ABA” value ([1]; 1 µM exogenous ligand) does the source give for `CCC(=C/C(=O)O)/C=C/C(O)(C(C)C)C1(C#N)CC1` (centres unmarked) [CCP2] here?
Answer: no significant reporter regulation

Question: What about the “Higher level required for induction value comparable to 1 µM ABA” value ([1]; yeast, RCAR8-ABI2) of the same compound?
Answer: > 30 x

Question: And the “Statistical significance of RCAR1-mediated inhibition of ABI2 phosphatase activity vs ABA” value ([2]; 0.003 µM)?
Answer: ns (Otherwise, the difference is regarded as insignificant indicated as “ns”)

Question: And the “Statistical significance of RCAR1-mediated inhibition of ABI2 phosphatase activity vs CCP1” value ([2]; 0.003 µM)?
Answer: ns (Otherwise, the difference is regarded as insignificant indicated as “ns”)

Question: What about the “Statistical significance of RCAR1-mediated inhibition of ABI2 phosphatase activity vs ABA” value ([2]; 0.01 µM) of the same compound?
Answer: ns (Otherwise, the difference is regarded as insignificant indicated as “ns”)

Question: And the “Statistical significance of RCAR1-mediated inhibition of ABI2 phosphatase activity vs CCP1” value ([2]; 0.01 µM)?
Answer: ns (Otherwise, the difference is regarded as insignificant indicated as “ns”)

Question: What about the “Statistical significance of RCAR1-mediated inhibition of ABI2 phosphatase activity vs ABA” value ([2]; 0.03 µM) of the same compound?
Answer: s (P < 0.05 (one-way ANOVA) is considered as a significant difference and expressed as “s”)

Question: What about the “Statistical significance of RCAR1-mediated inhibition of ABI2 phosphatase activity vs CCP1” value ([2]; 0.03 µM) of the same compound?
Answer: ns (Otherwise, the difference is regarded as insignificant indicated as “ns”)

Question: And the “Statistical significance of RCAR1-mediated inhibition of ABI2 phosphatase activity vs ABA” value ([2]; 0.1 µM)?
Answer: s (P < 0.05 (one-way ANOVA) is considered as a significant difference and expressed as “s”)

Question: What about the “Statistical significance of RCAR1-mediated inhibition of ABI2 phosphatase activity vs CCP1” value ([2]; 0.1 µM) of the same compound?
Answer: s (P < 0.05 (one-way ANOVA) is considered as a significant difference and expressed as “s”)

Question: What about the “IC50 relative to ABA (fold higher)” value ([2]; 100 nM ABI2 and 200 nM RCAR1) of the same compound?
Answer: approximately 100 fold

Question: What about the “Statistical significance of RCAR1-mediated inhibition of ABI2 phosphatase activity vs ABA” value ([2]; 0.3 µM) of the same compound?
Answer: s (P < 0.05 (one-way ANOVA) is considered as a significant difference and expressed as “s”)

Question: And the “Statistical significance of RCAR1-mediated inhibition of ABI2 phosphatase activity vs CCP1” value ([2]; 0.3 µM)?
Answer: s (P < 0.05 (one-way ANOVA) is considered as a significant difference and expressed as “s”)

Question: What about the “Statistical significance of RCAR1-mediated inhibition of ABI2 phosphatase activity vs ABA” value ([2]; 1 µM) of the same compound?
Answer: s (P < 0.05 (one-way ANOVA) is considered as a significant difference and expressed as “s”)

Question: And the “Statistical significance of RCAR1-mediated inhibition of ABI2 phosphatase activity vs CCP1” value ([2]; 1 µM)?
Answer: ns (Otherwise, the difference is regarded as insignificant indicated as “ns”)

Question: And the “Statistical significance of RCAR1-mediated inhibition of ABI2 phosphatase activity vs ABA” value ([2]; 3 µM)?
Answer: s (P < 0.05 (one-way ANOVA) is considered as a significant difference and expressed as “s”)

Question: What about the “Statistical significance of RCAR1-mediated inhibition of ABI2 phosphatase activity vs CCP1” value ([2]; 3 µM) of the same compound?
Answer: ns (Otherwise, the difference is regarded as insignificant indicated as “ns”)

Question: What about the “Statistical significance of RCAR1-mediated inhibition of ABI2 phosphatase activity vs ABA” value ([2]; 10 µM) of the same compound?
Answer: s (P < 0.05 (one-way ANOVA) is considered as a significant difference and expressed as “s”)

Question: And the “Statistical significance of RCAR1-mediated inhibition of ABI2 phosphatase activity vs CCP1” value ([2]; 10 µM)?
Answer: ns (Otherwise, the difference is regarded as insignificant indicated as “ns”)

Question: And the “Statistical significance of RCAR1-mediated inhibition of ABI2 phosphatase activity vs ABA” value ([2]; 30 µM)?
Answer: s (P < 0.05 (one-way ANOVA) is considered as a significant difference and expressed as “s”)

Question: And the “Statistical significance of RCAR1-mediated inhibition of ABI2 phosphatase activity vs CCP1” value ([2]; 30 µM)?
Answer: ns (Otherwise, the difference is regarded as insignificant indicated as “ns”)

Question: What about the “Statistical significance of RCAR1-mediated inhibition of ABI2 phosphatase activity vs ABA” value ([2]; 100 µM) of the same compound?
Answer: s (P < 0.05 (one-way ANOVA) is considered as a significant difference and expressed as “s”)

Question: What about the “Statistical significance of RCAR1-mediated inhibition of ABI2 phosphatase activity vs CCP1” value ([2]; 100 µM) of the same compound?
Answer: ns (Otherwise, the difference is regarded as insignificant indicated as “ns”)

Question: And the “ABA-agonistic activity in yeast LUC reporter” value ([3]; 30 µM, not esterase-treated)?
Answer: revealed an ABA-agonistic activity

Question: What about the “Activation of the ABA response compared to ABA” value ([3]; dose-dependent, 0.1-30 µM) of the same compound?
Answer: comparable activity to ABA

Question: What about the “Induction of ABA signaling compared to ABA” value [4] of the same compound?
Answer: ABA-like activity
